Data from patent US12497610B2, “Functional genomics using CRISPR-CAS systems for saturating mutagenesis of non-coding elements, compositions, methods, libraries and applications thereof” (THE BROAD INSTITUTE, INC., priority 2015, dated 2025).

Test system: human BCL11A erythroid enhancer
Experiment: Tiled pooled CRISPR-Cas9 screen for in situ functional mapping of the human BCL11A erythroid enhancer (HbF-high/HbF-low sort, sgRNA deep sequencing)
Type: cell-based
Conditions: for Enrichment Score: HbF enrichment, human library NGG and NGG RC sgRNAs filtered for enrichment score >0.259; for Dropout Score: human library sgRNAs that produced HbF enrichment over 0.259
Text: Every 20-mer sequence upstream of an NGG or NAG PAM sequence on the sense or anti-sense strand was identified for both the human and mouse orthologous +55, +58, and +62 DNase hypersensitive site (DHS) as well as BCL11A/BCL11a exon 2. Relative to the human hg 19 reference genome, a reference was used with the following substitutions to approximate a common low-HbF associated haplotype: rs1427407-G, rs1896293-T, rs6706648-T, rs6738440-G, rs7606173-C. Each of the sgRNA oligos were synthesized as previously described (37,41,64) and cloned using a Gibson Assembly master mix (New England Biolabs) into lentiGuide-Puro (Addgene plasmid ID 52963) BsmBI digested, PCR purified, and dephosphorylated. Gibson Assembly products were transformed to electrocompetent E. cloni cells (Lucigen). Sufficient colonies were isolated to ensure 90X library coverage for both human and mouse libraries. Plasmid libraries were deep sequenced (described below) to confirm representation.
Tiled Pooled CRISPR-Cas9 Screen for In Situ Functional Mapping the Human BCL11A Erythroid Enhancer.
HUDEP clone 2 (HUDEP-2) was utilized as previously described by from Nakamura and colleagues (49). HUDEP-2 cells were expanded in StemSpan SFEM (Stem Cell Technologies) supplemented with 10^−6 M dexamethasone (Sigma), 100 ng/mL human stem cell factor (SCF) (R&D), 3 IU/mL erythropoietin (Amgen), 1% L-glutamine (Life Technologies), and 2% penicillin/streptomycin (Life Technologies). 1 μg/mL doxycycline (Sigma) was included in the culture to induce expression of the human papilloma virus type 16 E6/E7 genes (49). HUDEP-2 cells were differentiated in Iscove's Modified Dulbecco's Medium (IMDM) supplemented with 330 μg/mL halo-transferrin (Sigma), 10 μg/mL recombinant human insulin (Sigma), 2 IU/mL heparin (Sigma), 5% human solvent detergent pooled plasma AB (Rhode Island Blood Center), 3 IU/mL erythropoietin (Amgen), 100 ng/mL human stem cell factor (SCF) (R&D), 1 μg/mL doxycycline (Sigma), 1% L-glutamine (Life Technologies), and 2% penicillin/streptomycin (Life Technologies).
HUDEP-2 cells with stable Cas9 expression were transduced at low multiplicity with the human sgRNA library lentivirus pool while in expansion medium. […] Cell numbers were maintained throughout the experiment at levels adequate to exceed 1000× representation of the library. 10 μg/mL blasticidin (Sigma) and 1 μg/mL puromycin (Sigma) were added 24 hours after transduction to select for lentiviral library integrants in cells with Cas9. Cells were cultured in expansion media for one week followed by differentiation media for an additional week.
Intracellular staining was performed by fixing cells with 0.05% glutaraldehyde (grade II) (Sigma) for 10 minutes at room temperature. Cells were centrifuged for 5 minutes at 350 g and then resuspended in 0.1% Triton-X100 (Life Technologies) for 5 minutes at room temperature for permeabilization. Triton X-100 was diluted with phosphate buffered saline (PBS) and then centrifuged at 350 g for 15 minutes. Cells were stained with anti-human antibodies for HbF (clone HbF-1 with FITC or APC conjugation; Life Technologies) and B-hemoglobin antibody (clone 37-8 with PerCP-Cy5 or PE conjugation; Santa Cruz) for 20 minutes in the dark. Cells were washed to remove unbound antibody prior to FACS analysis. 0.2 μg HbF and 2 μg of HbA CB-hemoglobin) antibodies were used per 5 million cells. Control cells exposed to a nontargeting sgRNA sample and BCL11A exon 2 were used as negative and positive controls respectively to establish flow cytometry conditions. Populations of cells with the top and bottom 10% of expression of HbF were sorted by FACS.
After sorting the HbF-high and HbF-low pools, library preparation and deep sequencing was performed as previously described (37). Briefly, genomic DNA was extracted using the Qiagen Blood and Tissue kit. […]

Substance	Enrichment Score	Dropout Score
BCL_00257_H_exon2 (guide TGCCAGATGAACTTCCCATTNGG; listed as DNA, chemistry not given here)	1.945	−1.9609
BCL_00082_H_D55 (guide TCACAGGGTGTGCCCTGAGANGG; listed as DNA, chemistry not given here)	0.4174	−1.087
BCL_01826_H_D62 (guide TTTGCTCTTCTCCAGGGTGTNGGRC; listed as DNA, chemistry not given here)	0.4003	−0.3386
BCL_01990_H_exon2 (guide GATAAACAATCGTCATCCTCNGGRC; listed as DNA, chemistry not given here)	0.8422	−0.6128
BCL_00252_H_exon2 (guide GCCCGTTGGGAGCTCCAGAANGG; listed as DNA, chemistry not given here)	0.5453	0.09212
BCL_00266_H_exon2 (guide TCCCGTGGAGGTTGGCATCCNGG; listed as DNA, chemistry not given here)	0.5889	−0.1802
BCL_01833_H_D62 (guide AGTTCAAGTAGATATCAGAANGGRC; listed as DNA, chemistry not given here)	0.6116	0.2289
BCL_00064_H_D55 (guide TGCCAACAGTGATAACCAGCNGG; listed as DNA, chemistry not given here)	0.5108	−0.3581
BCL_00267_H_exon2 (guide TGGCATCCAGGTCACGCCAGNGG; listed as DNA, chemistry not given here)	2.049	−2.006
BCL_00154_H_D58 (guide AGGGAAAAGGGAGAGGAAAANGG; listed as DNA, chemistry not given here)	0.4446	−0.3992
BCL_01639_H_D58 (guide ATCGGTGGCCGTTTGCCCAGNGGRC; listed as DNA, chemistry not given here)	0.8219	−0.8981
BCL_00185_H_D58 (guide GCAAACGGCCACCGATGGAGNGG; listed as DNA, chemistry not given here)	0.3196	−0.516
BCL_00181_H_D58 (guide CCTTCCGAAAGAGGCCCCCCNGG; listed as DNA, chemistry not given here)	0.3399	0.2621
BCL_00093_H_D55 (guide TCCCTTCCTAGAATTGGCCTNGG; listed as DNA, chemistry not given here)	0.5283	−0.5616
BCL_01438_H_D55 (guide TACCAGGATGATGCAATGCTNGGRC; listed as DNA, chemistry not given here)	0.9129	−0.4122
BCL_01626_H_D55 (guide TTTGGCCTCTGATTAGGGTGNGGRC; listed as DNA, chemistry not given here)	1.336	−0.2724
BCL_02015_H_exon2 (guide AAGAATGGCTTCAAGAGGCT; chemistry not given here)	1.064	−1.349
BCL_01443_H_D55 (guide GGCACACCCTGTGATCTTGTNGGRC; listed as DNA, chemistry not given here)	0.4181	0.2579
BCL_01621_H_D58 (guide CACAGGCTCCAGGAAGGGTTNGGRC; listed as DNA, chemistry not given here)	2.319	−0.6005

Substance	Enrichment Score	Dropout Score
BCL_01427_H_D55 (guide GGCTAAATAATGAATGTCCCNGGRC; listed as DNA, chemistry not given here)	0.367	−0.2716
BCL_00249_H_exon2 (guide TGAACCAGACCACGGCCCGTNGG; listed as DNA, chemistry not given here)	1.175	−0.8221
BCL_00090_H_D55 (guide CCTGGTACCAGGAAGGCAATNGG; listed as DNA, chemistry not given here)	0.4651	−0.5292
BCL_00261_H_exon2 (guide CACAAACGGAAACAATGCAANGG; listed as DNA, chemistry not given here)	3.329	−2.543
BCL_02000_H_exon2 (guide TCGATTGGTGAAGGGGAAGGNGGRC; listed as DNA, chemistry not given here)	0.4624	−1.365
BCL_01831_H_D62 (guide GGGTGGCTGTTTAAAGAGGGNGGRC; listed as DNA, chemistry not given here)	0.4104	−0.1486
BCL_01448_H_D55 (guide TGTGCTTGGTCGGCACTGATNGGRC; listed as DNA, chemistry not given here)	1.348	−0.4953
BCL_00089_H_D55 (guide TCCTGGTACCAGGAAGGCAANGG; listed as DNA, chemistry not given here)	0.3559	−0.7862
BCL_01623_H_D58 (guide AAGGGTTTGGCCTCTGATTANGGRC; listed as DNA, chemistry not given here)	1.285	−0.2669
BCL_00062_H_D55 (guide AGCAGCCCTGGGCACAGAAGNGG; listed as DNA, chemistry not given here)	0.3251	−0.6401
BCL_00160_H_D58 (guide TCAGGGGGAGGCAAGTCAGTNGG; listed as DNA, chemistry not given here)	0.3294	−0.318
BCL_00228_H_D62 (guide TCCCAGCACTTTGGGAGGCCNGG; listed as DNA, chemistry not given here)	0.761	−5.658
BCL_00262_H_exon2 (guide CCTCTGCTTAGAAAAAGCTGNGG; listed as DNA, chemistry not given here)	1.001	−1.352
BCL_02006_H_exon2 (guide TCTGGCACTGCCCACAGGTGNGGRC; listed as DNA, chemistry not given here)	1.489	−2.029
BCL_00255_H_exon2 (guide ATCATGACCTCCTCACCTGTNGG; listed as DNA, chemistry not given here)	1.703	−2.497
BCL_00184_H_D58 (guide CCTGGGCAAACGGCCACCGANGG; listed as DNA, chemistry not given here)	0.3155	−0.5414
BCL_00250_H_exon2 (guide GAACCAGACCACGGCCCGTTNGG; listed as DNA, chemistry not given here)	1.581	−0.6847
BCL_00259_H_exon2 (guide CCAGATGAACTTCCCATTGGNGG; listed as DNA, chemistry not given here)	3.266	−3.321
BCL_00225_H_D62 (guide ACCTGTAATCCCAGCACTTTNGG; listed as DNA, chemistry not given here)	0.3328	−8.821
